For experiment [1], the target named is T1, GCN2 (Homo sapiens, UniProt Q9P2K8). The experiment in a line: Cellular assay of GCN2 activity (phospho-eIF2alpha immunocytochemistry after tryptophanol). The settings on record: Human U2OS cells, 2 h compound, 600 μM tryptophanol 30 min. Set-up: endogenous in cells; host or cells: U2OS. Type of experiment: cell-based. As for the experimental part:
Cellular Assay for the Determination of Compound Activities
Human U2OS cells (2000 cells/well) are seeded into 384-well plates and incubated for 20 hours.
The next day, the cells are treated with the test compounds and incubated for 2 hours. Then, tryptophanol, at a final concentration of 600 μM, is added to the cells and those are incubated for 30 minutes.
The analysis of cellular GCN2 activities is done by immunocytochemistry.
Briefly, cells are fixated on the well surfaces by formaldehyde and permeabilised with Triton X-100.
The analysis and quantification of phosphorylated GCN2 is done by scanning the plates in the Acumen Explorer system (TTPLabtech). The obtained data are normalised against the untreated control wells (DMSO only) and expressed as % effect values. The determination of IC50 values is done by using the Graph Pad Prism software.
Target sequence in this assay (Q9P2K8 whole entry): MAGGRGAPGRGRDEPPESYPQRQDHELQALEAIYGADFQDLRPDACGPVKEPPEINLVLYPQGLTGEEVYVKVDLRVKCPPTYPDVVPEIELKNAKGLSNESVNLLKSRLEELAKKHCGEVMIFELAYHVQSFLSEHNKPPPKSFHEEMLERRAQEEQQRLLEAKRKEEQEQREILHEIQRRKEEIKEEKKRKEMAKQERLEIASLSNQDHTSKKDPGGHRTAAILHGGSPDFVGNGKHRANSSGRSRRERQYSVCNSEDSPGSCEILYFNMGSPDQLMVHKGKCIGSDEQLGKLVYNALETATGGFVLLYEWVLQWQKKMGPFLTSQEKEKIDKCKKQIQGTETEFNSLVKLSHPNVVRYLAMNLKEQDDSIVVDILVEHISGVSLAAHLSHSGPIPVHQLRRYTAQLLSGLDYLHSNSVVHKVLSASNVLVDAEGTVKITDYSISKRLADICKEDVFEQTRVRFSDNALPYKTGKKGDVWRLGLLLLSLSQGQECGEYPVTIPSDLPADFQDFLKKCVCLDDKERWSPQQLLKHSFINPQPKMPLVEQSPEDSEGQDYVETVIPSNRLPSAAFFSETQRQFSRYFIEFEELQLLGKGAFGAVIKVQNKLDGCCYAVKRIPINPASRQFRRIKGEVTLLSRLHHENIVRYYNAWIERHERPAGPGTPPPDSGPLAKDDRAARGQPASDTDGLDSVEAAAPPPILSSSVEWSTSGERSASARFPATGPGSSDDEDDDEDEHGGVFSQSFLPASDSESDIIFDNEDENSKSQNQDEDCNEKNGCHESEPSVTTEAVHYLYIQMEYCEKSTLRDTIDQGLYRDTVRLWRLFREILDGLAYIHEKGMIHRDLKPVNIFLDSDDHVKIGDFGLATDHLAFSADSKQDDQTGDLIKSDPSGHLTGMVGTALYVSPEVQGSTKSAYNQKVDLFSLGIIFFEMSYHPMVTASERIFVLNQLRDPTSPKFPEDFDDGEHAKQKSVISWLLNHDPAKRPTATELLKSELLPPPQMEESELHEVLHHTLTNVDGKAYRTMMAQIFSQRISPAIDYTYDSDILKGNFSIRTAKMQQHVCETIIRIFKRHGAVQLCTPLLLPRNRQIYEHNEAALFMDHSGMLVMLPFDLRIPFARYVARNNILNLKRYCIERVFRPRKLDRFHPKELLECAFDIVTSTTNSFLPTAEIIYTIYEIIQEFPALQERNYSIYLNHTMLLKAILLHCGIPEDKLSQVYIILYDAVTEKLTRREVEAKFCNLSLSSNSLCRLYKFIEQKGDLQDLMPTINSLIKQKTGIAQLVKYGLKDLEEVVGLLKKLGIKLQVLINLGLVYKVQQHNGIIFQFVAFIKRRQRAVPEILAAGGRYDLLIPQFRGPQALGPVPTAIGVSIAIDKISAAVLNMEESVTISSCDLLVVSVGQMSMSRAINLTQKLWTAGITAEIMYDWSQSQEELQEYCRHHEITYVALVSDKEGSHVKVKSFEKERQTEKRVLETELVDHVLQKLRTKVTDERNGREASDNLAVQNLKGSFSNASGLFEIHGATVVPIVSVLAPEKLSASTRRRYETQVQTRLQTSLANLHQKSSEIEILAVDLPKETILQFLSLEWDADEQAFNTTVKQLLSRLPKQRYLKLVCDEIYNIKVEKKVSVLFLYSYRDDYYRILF

Experiment [2] deals with T1, GCN2. The experiment in a line: GCN2 enzyme assay (TR-FRET Lanthascreen, GFP-eIF2alpha phosphorylation). The settings on record: 10 μM ATP, 80 nM GFP-eIF2a, 30 nM GCN2. Type of experiment: biochemical. Put shortly:
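Kinase reaction with 10 μM ATP and 80 nM GFP-labelled eIF2alpha substrate at room temperature, stopped with EDTA. Phospho-eIF2alpha detected by TR-FRET between antibody and GFP-substrate, excitation at 340 nm.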
Target sequence in this assay (Q9P2K8 whole entry, species assumed): as the sequence (Q9P2K8 whole entry) above

For experiment [3], the target named is GSK3α(h) (Homo sapiens, UniProt P49840). Nature of the experiment: GSK3α radiometric kinase assay (33P-ATP, phospho GS2 peptide). Type of experiment: biochemical. The settings on record: read-out: IC50 GSK3α (enzyme assay). The protocol: GSK3α(h) is incubated with 8 mM MOPS pH 7,0, 0,2 mM EDTA, 20 μM
GSK3α(h), sequence (P49840 whole entry): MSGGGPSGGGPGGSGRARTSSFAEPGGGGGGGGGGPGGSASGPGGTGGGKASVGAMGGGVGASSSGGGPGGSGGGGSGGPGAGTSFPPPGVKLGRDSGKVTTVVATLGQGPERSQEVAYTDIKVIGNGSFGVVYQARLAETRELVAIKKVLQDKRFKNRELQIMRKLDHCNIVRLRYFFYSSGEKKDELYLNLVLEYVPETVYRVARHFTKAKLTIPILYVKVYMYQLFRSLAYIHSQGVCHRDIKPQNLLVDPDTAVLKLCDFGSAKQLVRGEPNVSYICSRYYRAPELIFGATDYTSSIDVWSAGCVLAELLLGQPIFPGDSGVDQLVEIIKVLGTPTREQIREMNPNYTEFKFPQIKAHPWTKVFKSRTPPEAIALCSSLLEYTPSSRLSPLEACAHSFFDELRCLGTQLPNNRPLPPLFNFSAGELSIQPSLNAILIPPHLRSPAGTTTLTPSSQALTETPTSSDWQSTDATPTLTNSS
[…](p)EDEEE (phosphor GS2 peptide), 10 mM Mg-acetate and [gamma-33P-ATP](specific activity approx. 500 cpm/Pmol, concentration as required). The reaction is initiated by the addition of the MgATP. After incubation for 40 minutes at the room temperature, the Reaction is stopped by the addition of 3% phosphoric acid solution. 10 μL of reaction is then spotted onto a P30 filtermat and washed three times for 5 minutes in 50 mM phosphoric acid and once in methanol prior to drying and scintillation counting.

For 21 compounds, IC50 results are on record in patent publication US9855268B2, “Triazolo[4,5-d]pyrimidine derivatives” (Merck Patent GmbH, priority 2013, dated 2018).

The term IC50 denotes the point on the concentration scale where inhibition reaches its midpoint.

Take `Cn1cc(-c2ccc(-n3nnc4cnc(N[C@H]5CC[C@H](O)C5)nc43)cc2)cn1` (relative stereo) [A51, trans-3-{3-[4-(1-methyl-1H-pyrazol-4-yl)-phenyl]-3H-[1,2,3]triazolo[4,5-d]pyrimidin-5-ylamino}-cyclopentanol]: the concentration for half-maximal inhibition (IC50) in experiment [1] was 1000 to 5000 nM; in experiment [2], less than 1000 nM.
On the same counts, the results for `OCCn1cc(-c2ccc(-n3nnc4cnc(N[C@H]5CC[C@H](O)C5)nc43)cc2)cn1` (relative stereo) [A57, trans-3-(3-{4-[1-(2-hydroxy-ethyl)-1H-pyrazol-4-yl]-phenyl}-3H-[1,2,3]triazolo[4,5-d]pyrimidin-5-ylamino)-cyclopentanol] are 1000 to 5000 nM and less than 1000 nM.
On to `O[C@@H]1CC[C@@H](Nc2ncc3nnn(-c4ccc(OC[C@H](O)C(F)(F)F)cc4)c3n2)C1` (stereo in doubt) [A205, (trans)-3-{3-[4-((S)-3,3,3-trifluoro-2-hydroxy-propoxy)-phenyl]-3H-[1,2,3]triazolo[4,5-d]pyrimidin-5-ylamino}-cyclopentanol], for which the concentration for half-maximal inhibition (IC50) was 5000 to 10000 nM in experiment [1] and less than 1000 nM in experiment [2].
In the case of `COc1ccc(-n2nnc3cnc(NC4CC4)nc32)cc1` [A4, cyclopropyl-[3-(4-methoxy-phenyl)-3H-[1,2,3]triazolo[4,5-d]pyrimidin-5-yl]-amine], the IC50 in experiment [1] and in experiment [2] was less than 1000 nM each time.
`COc1ccc(-n2nnc3cnc(NC4CCN(C(=O)CCN(C)C)CC4)nc32)cc1` [A49, 3-dimethylamino-1-{4-[3-(4-methoxy-phenyl)-3H-[1,2,3]triazolo[4,5-d]pyrimidin-5-ylamino]-piperidin-1-yl}-propan-1-one]: the results for the concentration for half-maximal inhibition (IC50) in experiment [1] and in experiment [2] were 5000 to 10000 nM and less than 1000 nM, respectively.
On the same counts, the results for `COCCn1cc(-c2ccc(-n3nnc4cnc(N[C@H]5CC[C@H](N)CC5)nc43)cc2)cn1` [A52, N-(3-{4-[1-(2-methoxy-ethyl)-1H-pyrazol-4-yl]-phenyl}-3H-[1,2,3]triazolo[4,5-d]-pyrimidin-5-yl)-cyclohexane-1,4-diamine] are 1000 to 5000 nM and less than 1000 nM.
As to `N[C@H]1CC[C@H](Nc2ncc3nnn(-c4ccc(N5CCOCC5)cc4)c3n2)CC1` [A64, N-[3-(4-morpholin-4-yl-phenyl)-3H-[1,2,3]triazolo[4,5-d]pyrimidin-5-yl]-cyclohexane-1,4-diamine], the IC50 in experiment [1] is 1000 to 5000 nM; in experiment [2] it was less than 1000 nM.
On the same counts, the results for `N[C@H]1CC[C@H](Nc2ncc3nnn(-c4ccc(N5CC[C@@H](O)C5)cc4)c3n2)CC1` [A70, (R)-1-{4-[5-((trans)-4-amino-cyclohexylamino)-[1,2,3]triazolo[4,5-d]pyrimidin-3-yl]-phenyl}-pyrrolidin-3-ol] are 5000 to 10000 nM and less than 1000 nM.
For `Cn1cc(-c2ccc(-n3nnc4cnc(N[C@@H]5CCNC5)nc43)cc2)cn1` [A116, {3-[4-(1-methyl-1H-pyrazol-4-yl)-phenyl]-3H-[1,2,3]triazolo[4,5-d]pyrimidin-5-yl}-(R)-pyrrolidin-3-yl-amine], the IC50 in experiment [1] is 5000 to 10000 nM; in experiment [2], less than 1000 nM.
On the same counts, the results for `N[C@H]1CC[C@H](Nc2ncc3nnn(-c4ccc(N5CC[C@H](O)C5)cc4)c3n2)CC1` [A128, (S)-1-{4-[5-(4-amino-cyclohexylamino)-[1,2,3]triazolo[4,5-d]pyrimidin-3-yl]-phenyl}-pyrrolidin-3-ol] are 5000 to 10000 nM and less than 1000 nM.
Consider `COc1ccc(-n2nnc3cnc(NC(C)CC(N)=O)nc32)cc1` (stereo not drawn) [A144, 3-[3-(4-methoxy-phenyl)-3H-[1,2,3]triazolo[4,5-d]pyrimidin-5-ylamino]-butyramide], for which the IC50 in experiment [2] and in experiment [3] was less than 1000 nM each time.
With `COCC(COC)Oc1ccc(-n2nnc3cnc(N[C@@H]4CC[C@@H](C(N)=O)C4)nc32)cc1` [A167, (1R,3R)-3-{3-[4-(2-methoxy-1-methoxymethyl-ethoxy)-phenyl]-3H-[1,2,3]triazolo[4,5-d]pyrimidin-5-ylamino}-cyclopentanecarboxylic acid amide], the IC50 was 1000 to 5000 nM in experiment [1] and less than 1000 nM in experiment [2].
On the same counts, the results for `NC(=O)[C@@H]1CC[C@@H](Nc2ncc3nnn(-c4ccc(OC5CCOCC5)cc4)c3n2)C1` [A168, (1R,3R)-3-{3-[4-(tetrahydro-pyran-4-yloxy)-phenyl]-3H-[1,2,3]triazolo[4,5-d]-pyrimidin-5-ylamino}-cyclopentanecarboxylic acid amide] are 1000 to 5000 nM and less than 1000 nM.
As to `NC(=O)[C@H]1CC[C@@H](Nc2ncc3nnn(-c4ccc5nsnc5c4)c3n2)C1` [A172, (1S,3R)-3-(3-benzo[1,2,5]thiadiazol-5-yl-3H-[1,2,3]triazolo[4,5-d]pyrimidin-5-ylamino)-cyclopentanecarboxylic acid amide], the IC50 in experiment [2] and in experiment [3] was less than 1000 nM in each case.
For `COc1ccc(-n2nnc3cnc(N[C@@H]4CC[C@@H](C(N)=O)C4)nc32)cn1` [A173, (1R,3R)-3-[3-(6-methoxy-pyridin-3-yl)-3H-[1,2,3]triazolo[4,5-d]pyrimidin-5-ylamino]-cyclopentanecarboxylic acid amide], the IC50 in experiment [2] and in experiment [3] was less than 1000 nM throughout.
Turning to `NC(=O)[C@@H]1CC[C@@H](Nc2ncc3nnn(-c4ccc5nsnc5c4)c3n2)C1` [A174, (1R,3R)-3-(3-benzo[1,2,5]thiadiazol-5-yl-3H-[1,2,3]triazolo[4,5-d]pyrimidin-5-ylamino)-cyclopentanecarboxylic acid amide], the half-maximal inhibitory concentration (IC50) in experiment [2] and in experiment [3] was less than 1000 nM throughout.
On to `COc1ccc(-n2nnc3cnc(N[C@@H]4CC[C@@H](C(N)=O)C4)nc32)nc1` [A175, (1R,3R)-3-[3-(5-methoxy-pyridin-2-yl)-3H-[1,2,3]triazolo[4,5-d]pyrimidin-5-ylamino]-cyclopentanecarboxylic acid amide], for which the IC50 in experiment [2] and in experiment [3] was less than 1000 nM throughout.
For `NC(=O)[C@@H]1CC[C@@H](Nc2ncc3nnn(-c4cccc(I)c4)c3n2)C1` [A176, (1R,3R)-3-[3-(3-iodo-phenyl)-3H-[1,2,3]triazolo[4,5-d]pyrimidin-5-ylamino]-cyclopentanecarboxylic acid amide], the IC50 in experiment [2] and in experiment [3] was less than 1000 nM throughout.
For `NC(=O)[C@@H]1CC[C@@H](Nc2ncc3nnn(-c4ccc(-c5cnn(CCc6nnn[nH]6)c5)cc4)c3n2)C1` [A265, (1R,3R)-3-[3-(4-{1-[2-(1H-tetrazol-5-yl)-ethyl]-1H-pyrazol-4-yl}-phenyl)-3H-[1,2,3]triazolo[4,5-d]pyrimidin-5-ylamino]-cyclopentanecarboxylic acid amide], the IC50 in experiment [2] and in experiment [3] was less than 1000 nM in each case.
For the compound `COc1ccc(-n2nnc3cnc(N[C@@H]4CCN(S(N)(=O)=O)C4)nc32)cc1` [A270, (R)-3-[3-(4-methoxy-phenyl)-3H-[1,2,3]triazolo[4,5-d]pyrimidin-5-ylamino]-pyrrolidine-1-sulfonic acid amide], the 50% inhibitory concentration (IC50) in experiment [2] and in experiment [3] was less than 1000 nM each time.
Regarding `Cn1cc(-c2ccc(-n3nnc4cnc(N[C@@H]5CCN(C(=O)CCCN6CCNCC6)C5)nc43)cc2)cn1` [A271, 1-((R)-3-{3-[4-(1-methyl-1H-pyrazol-4-yl)-phenyl]-3H-[1,2,3]triazolo[4,5-d]pyrimidin-5-ylamino}-pyrrolidin-1-yl)-4-piperazin-1-yl-butan-1-one], the half-inhibitory concentration (IC50) in experiment [2] and in experiment [3] was less than 1000 nM in each case.
